Experimental data as given in US11504383B2, “Crystalline forms of a Ryanodine receptor modulator and uses thereof” (ARMGO Pharma, Inc., priority 2021, dated 2022).
“Also recorded” adds a separate entry of the source.

Experiments:
Type in all cases: physicochemical
[1] = Competitive slurry experiments mixing Form 1 and Form 2 in various solvents
Experimental: Competitive slurry experiments were performed at 15° C. (Table 5) or 40° C. (Table 6) by mixing Form 1 and Form 2 in various solvents in acetonitrile/water, acetone/water and methanol/water mixtures. […] (Table 5) or 40° C. (Table 6).

[2] = Storage stability of the polymorphs followed by XRD
Experimental: The top panel depicts the polymorph at initiation and the bottom three panels depict the polymorph after 24 months. FIG. 5 Panel A: initial control; FIG. 5 Panel B: sample stored for 2 years in open bottle in stability chambers at 25° C./60% relative humidity (RH); FIG. 5 Panel C: sample stored for 2 years in closed bottle in stability chambers at 40° C./75% RH; FIG. 5 Panel D: sample stored for 2 years in open bottle in stability chambers at 40° C./75% RH.
The top panel depicts the polymorph at initiation and the bottom panels depict the polymorph after 3, 6, 12 and 24 months.

[3] = Dynamic vapor sorption (hygroscopicity); settings: DVS, 25° C., 0-90% relative humidity
Experimental: Dynamic vapor sorption (DVS) analysis was performed by measuring mass variation of the crystalline form of 4-[(7-methoxy-2,3-dihydro-1,4-benzothiazepin-4(5H)yl)methyl]benzoic acid hemifumarate as a function of relative humidity using a DVS intrinsic instrument. A 5 mg to 10 mg of a sample of a crystalline form of 4-[(7-methoxy-2,3-dihydro-1,4-benzothiazepin-4(5H)yl)methyl]benzoic acid, hemifumarate was placed into a sample pan of a DVS intrinsic instrument at 25° C. under controlled humidity. The mass variation was recorded as a function of relative humidity.
Measurement of DVS comprised: (a) equilibrating a sample of the crystalline form at 25° C. and 50% relative humidity in a temperature-controlled and humidity controlled chamber until mass variation is less than 0.002% per minute for 6 hours; (b) increasing the relative humidity from 50% to 90% at a rate of 10% per hour; (c) equilibrating the sample at 90% relative humidity until mass variation of less than 0.002% per minute for 6 hours is observed; (d) decreasing the relative humidity from 90% to 0% at a rate of 10% per hour; (e) equilibrating the sample at 0% relative humidity until mass variation of less than 0.002% per minute for 6 hours is observed; and (f) increasing the relative humidity from 0% to 50% at a rate of 10% per hour.

[4] = Thermogravimetric analysis (loss of mass before melting/degradation); settings: 25° C. to 250° C. at about 10° C./minute
Experimental: Thermogravimetric analysis (TGA) was performed. A 10 to 20 mg of sample of a crystalline form of 4-[(7-methoxy-2,3-dihydro-1,4-benzothiazepin-4(5H)yl)methyl]benzoic acid hemifumarate was placed into an aluminum pan, with nitrogen purge. The sample was equilibrated at 25° C. in a temperature-controlled chamber. The sample was heated at a scan rate of about 10° C./minute to 250° C. under nitrogen purge. A TGA Q5000 thermogravimetric analysis instrument was used.

## COc1ccc2c(c1)CN(Cc1ccc(C(=O)O)cc1)CCS2.O=C(O)/C=C/C(=O)O [Form 1 and Form 2]
[1]; 15° C. for 10 days, Acetone
  XRD (form after competitive slurry): Form 2
[1]; 15° C. for 10 days, Acetone/water 30/70
  XRD (form after competitive slurry): Form 2
[1]; 15° C. for 10 days, Acetone/water 90/10
  XRD (form after competitive slurry): Form 2
[1]; 15° C. for 10 days, Acetone/water 96/4
  XRD (form after competitive slurry): Form 2
[1]; 15° C. for 10 days, Acetone/water 98/2
  XRD (form after competitive slurry): Form 2
[1]; 15° C. for 10 days, Acetonitrile
  XRD (form after competitive slurry): Acetonitrile solvate (Form 4)
[1]; 15° C. for 10 days, Acetonitrile/water 15/85
  XRD (form after competitive slurry): Acetonitrile solvate (Form 4)
[1]; 15° C. for 10 days, Acetonitrile/water 87/13
  XRD (form after competitive slurry): Acetonitrile solvate (Form 4)
[1]; 15° C. for 10 days, Acetonitrile/water 94/6
  XRD (form after competitive slurry): Acetonitrile solvate (Form 4)
[1]; 15° C. for 10 days, Acetonitrile/water 98/2
  XRD (form after competitive slurry): Acetonitrile solvate (Form 4)
[1]; 15° C. for 10 days, Methanol
  XRD (form after competitive slurry): Methanol solvate (Form 3)
[1]; 15° C. for 10 days, Methanol/water 20/80
  XRD (form after competitive slurry): Form 2 + Methanol solvate
[1]; 15° C. for 10 days, Methanol/water 50/50
  XRD (form after competitive slurry): Methanol solvate (Form 3)
[1]; 15° C. for 10 days, Methanol/water 70/30
  XRD (form after competitive slurry): Methanol solvate (Form 3)
[1]; 15° C. for 10 days, Methanol/water 95/5
  XRD (form after competitive slurry): Methanol solvate (Form 3)
[1]; 15° C. for 10 days, Water
  XRD (form after competitive slurry): Form 2
[1]; 40° C. for 5 days, Acetone
  XRD (form after competitive slurry): Form 2
[1]; 40° C. for 5 days, Acetone/water 30/70
  XRD (form after competitive slurry): Form 2
[1]; 40° C. for 5 days, Acetone/water 90/10
  XRD (form after competitive slurry): Form 2
[1]; 40° C. for 5 days, Acetone/water 96/4
  XRD (form after competitive slurry): Form 2
[1]; 40° C. for 5 days, Acetone/water 98/2
  XRD (form after competitive slurry): Form 2
[1]; 40° C. for 5 days, Acetonitrile
  XRD (form after competitive slurry): Acetonitrile solvate (Form 4)
[1]; 40° C. for 5 days, Acetonitrile/water 15/85
  XRD (form after competitive slurry): Acetonitrile solvate (Form 4)
[1]; 40° C. for 5 days, Acetonitrile/water 87/13
  XRD (form after competitive slurry): Acetonitrile solvate (Form 4)
[1]; 40° C. for 5 days, Acetonitrile/water 94/6
  XRD (form after competitive slurry): Acetonitrile solvate (Form 4)
[1]; 40° C. for 5 days, Acetonitrile/water 98/2
  XRD (form after competitive slurry): Acetonitrile solvate (Form 4)
[1]; 40° C. for 5 days, Methanol
  XRD (form after competitive slurry): Methanol solvate (Form 3)
[1]; 40° C. for 5 days, Methanol/water 20/80
  XRD (form after competitive slurry): Form 2 + Methanol solvate
[1]; 40° C. for 5 days, Methanol/water 50/50
  XRD (form after competitive slurry): Methanol solvate (Form 3)
[1]; 40° C. for 5 days, Methanol/water 70/30
  XRD (form after competitive slurry): Methanol solvate (Form 3)
[1]; 40° C. for 5 days, Methanol/water 95/5
  XRD (form after competitive slurry): Methanol solvate (Form 3)
[1]; 40° C. for 5 days, Water
  XRD (form after competitive slurry): Form 2
[1]; acetone/water mixtures, all tested conditions
  Form obtained from slurry: converted into Form 2
[1]; acetonitrile/water mixtures, all tested ratios, 15° C. or 40° C.
  Form obtained from slurry: converted into the acetonitrile solvate (Form 4)
[1]; methanol/water (20/80 v/v)
  Form obtained from slurry: a mixture of Form 2 and methanol solvate
[1]; methanol/water mixtures, all tested ratios except 20/80 v/v, 15° C. or 40° C.
  Form obtained from slurry: converted into the methanol solvate (Form 3)

## COc1ccc2c(c1)CN(Cc1ccc(C(=O)O)cc1)CCS2.O=C(O)/C=C/C(=O)O [Form 1, 4-[(7-methoxy-2,3-dihydro-1,4-benzothiazepin-4(5H)yl)methyl]benzoic acid, hemifumarate]
[2]; XRD, FIG. 5
  Storage time without any detectable conversion into Form 2: at least 24 months
[2]; after 24 months, open bottle 25° C./60% RH, closed bottle 40° C./75% RH, open bottle 40° C./75% RH
  Stability of the polymorph on storage (XRD, FIG. 5): stable
[3]
  Hygroscopicity: slightly hygroscopic; also recorded: non-hygroscopic
[4]
  Loss of mass before melting degradation (TGA): about 1%
